Assay [1] relates to TNFα release from human peripheral blood lymphocytes. Briefly: Lipopolysaccharide-stimulated TNFα release from human peripheral blood lymphocytes. The format is cell-based. Conditions: Lymphocyte. As for the experimental part: The compounds of structural formulae (I) and (II) were tested for an ability to reduce TNFα secretions in human peripheral blood lymphocytes. The ability of a compound to reduce TNFα secretion is related to the EC50 value for the compound (i.e., the effective concentration of the compound capable of inhibiting 50% of the total TNFα).
To assess the ability of a compound to reduce TNFα secretion in human peripheral blood lymphocytes (PBL), the following tests were performed.
Heparinized blood (approximately 30 mL) drawn from human volunteers was mixed 1:1 with Dulbecco's modified phosphate-buffered saline. This mixture was mixed 1:1 with HISTOPAQUE® and centrifuged at 1,500 rpm at room temperature without braking in the swinging bucket of a Beckman model TJ6 centrifuge. Erythrocytes were centrifuged to the bottom of the tubes, and serum remained at the surface of the tubes. A layer containing lymphocytes sedimented between the serum and HISTOPAQUE® layers, and was removed by aspiration to a fresh tube. The cells were quantified and adjusted to […] and a 100 μL aliquot is placed into the wells of a 96 well plate. Test compounds and RPMI media (Gibco/BRL Life Sciences) are added to each of the wells 15 minutes prior to addition of bacterial LPS ([…]). The mixture was allowed to incubate for 20 hours at 37° C. in a humidified chamber. The cells then were separated by centrifuging at 800 rpm for 5 minutes at room temperature. An aliquot of 180 μL of supernatant was transferred to a new plate for determination of TNFα concentration. TNFα protein in the cell supernatant fluids was measured using a commercially available enzyme-linked immunosorbent assay (ELISA) (CYTOSCREEN® Immunoassay Kit from Biosource International).
The cell-based assay provided the following results for various compounds of the present invention. The EC50. values (i.e., effective concentration of the compound capable of inhibiting 50% of the total TNFα) illustrate the ability of the present compounds to inhibit LPS-stimulated TNFα release from human PBL.
The cell-based assay provided the following results for various pyrazole compounds of the present invention. The EC50 values (i.e., effective concentrations of the compound capable of inhibiting 50% of the total TNFα) illustrate the ability of the present compounds to inhibit LPS-stimulated TNFα release from human peripheral blood lymphocytes.

The next assay has as its target T1, human recombinant PDE4 (Homo sapiens, UniProt Q07343).
T1 construct: made in house; host or cells: Saccharomyces cerevisiae BJ2-54
Briefly: Inhibition of human recombinant PDE4 (charcoal separation PDE assay). The format is biochemical. As for the experimental part:
The compounds of structural formula (I) were tested for an ability to inhibit PDE4. […] The IC50 value for compounds of structural formula (I) were determined using human recombinant PDE4.
Phosphodiesterase activity of the preparations was determined as follows. […] In this assay, PDE activity converts [32P]cAMP or [32P]cGMP to the corresponding [32P]5′-AMP or [32P]5′-GMP in proportion to the amount of PDE activity present. The [32P]5′-AMP or [32P]5′-GMP then was quantitatively converted to free [32P]phosphate and unlabeled adenosine or guanosine by the action of snake venom 5′-nucleotidase. […] The assay was performed at 30° C. in a 100 μL reaction mixture containing (final concentrations) 40 mM Tris HCl (pH 8.0), 1 μM ZnSO4, 5 mM MgCl2, and 0.1 mg/mL bovine serum albumin (BSA). Alternatively, in assays assessing PDE1-specific activity, incubation mixtures further incorporated the use of 0.1 mM CaCl2 and 10 μg/mL calmodulin. PDE enzyme was present in quantities that yield <30% total hydrolysis of substrate (linear assay conditions). The assay was initiated by addition of substrate (1 mM [32P]cAMP or cGMP), and the mixture was incubated for 12 minutes. Seventy-five (75) μg of Crotalus atrox venom then was added, and the incubation was continued for 3 minutes (15 minutes total). The reaction was stopped by addition of 200 μL of activated charcoal (25 mg/mL suspension in 0.1 M NaH2PO4, pH 4). After centrifugation (750×g for 3 minutes) to sediment the charcoal, a sample of the supernatant was taken for radioactivity determination in a scintillation counter and the PDE activity was calculated.

Where [2] appears, read: Homo sapiens, read-out: PBL/TNFα EC50 (μM).
[3] abbreviates: structure table, read-out: PDE4 IC50.
Setting [4] is: table with PBL/TNFα, read-out: PDE4 IC50.
Setting [5] is: LPS-stimulated TNFα release from human PBL, read-out: PBL/TNFα EC50.
[6] abbreviates: PDE4 IC50 (μM), structure table.

Like-named read-outs stand apart in the source and are kept apart here.

T1 sequence (Q07343 whole entry): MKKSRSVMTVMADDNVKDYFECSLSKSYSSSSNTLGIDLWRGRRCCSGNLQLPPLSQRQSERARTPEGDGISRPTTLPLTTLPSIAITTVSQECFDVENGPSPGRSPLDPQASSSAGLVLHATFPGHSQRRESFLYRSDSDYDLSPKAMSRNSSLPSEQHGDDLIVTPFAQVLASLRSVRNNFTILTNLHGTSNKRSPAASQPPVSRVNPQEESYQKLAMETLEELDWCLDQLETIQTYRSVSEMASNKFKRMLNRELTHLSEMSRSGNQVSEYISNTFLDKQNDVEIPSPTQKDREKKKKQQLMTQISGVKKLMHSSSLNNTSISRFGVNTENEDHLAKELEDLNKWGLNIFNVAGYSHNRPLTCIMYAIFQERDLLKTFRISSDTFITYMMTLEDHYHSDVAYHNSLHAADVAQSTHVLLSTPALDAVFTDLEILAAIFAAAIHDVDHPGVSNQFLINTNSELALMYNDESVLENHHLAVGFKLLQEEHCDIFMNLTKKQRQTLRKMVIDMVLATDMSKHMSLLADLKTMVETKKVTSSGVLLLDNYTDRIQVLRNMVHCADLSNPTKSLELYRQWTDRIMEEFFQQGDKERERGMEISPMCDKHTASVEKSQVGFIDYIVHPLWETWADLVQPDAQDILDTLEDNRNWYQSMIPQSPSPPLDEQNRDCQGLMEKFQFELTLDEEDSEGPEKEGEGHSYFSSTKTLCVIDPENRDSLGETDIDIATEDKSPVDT

One may read the IC50 as the concentration that inhibits the measured activity by half. As to `CCOC(=O)c1c(C)nn(-c2ccccc2)c1C` [Example 3, 3,5-dimethyl-1-phenyl-1H-pyrazole-4-carboxylic acid ethyl ester], the EC50 in assay [1] (setting [2]) amounted to 1.8 µM. Further, the half-maximal inhibitory concentration (IC50) on human recombinant PDE4 (setting [3]) and at human recombinant PDE4 (setting [4]) was 0.31 µM each time.

With `CCOC(=O)c1c(C)nn(-c2ccc(C)cc2)c1C` [Example 4, 3,5-dimethyl-1-p-tolyl-1H-pyrazole-4-carboxylic acid ethyl ester], the IC50 at human recombinant PDE4 (setting [3]) is 3.94 µM.

Regarding `CCOC(=O)c1c(C)nn(-c2ccccc2[N+](=O)[O-])c1C` [Example 5, 3,5-dimethyl-1-(2-nitrophenyl)-1H-pyrazole-4-carboxylic acid ethyl ester], on human recombinant PDE4 (setting [3]), the IC50 was 0.65 µM.

For the compound `CCOC(=O)c1c(C)nn(-c2ccccc2N)c1C` [Example 6, 3,5-dimethyl-1-(2-aminophenyl)-1H-Pyrazole-4-carboxylic acid ethyl ester], at human recombinant PDE4 (setting [3]), the half-inhibitory concentration (IC50) came to 1.13 µM.

Turning to `CCOC(=O)c1c(C)nn(-c2ccc([N+](=O)[O-])cn2)c1C` [Example 7, 3,5-dimethyl-1-(5-nitropyridin-2-yl)-1H-pyrazole-4-carboxylic acid ethyl ester], the IC50 on human recombinant PDE4 (read-out: PDE4 IC50, structure table) is 12.9 µM.

With `CCOC(=O)c1c(C)nn(-c2cccc(N)c2)c1C` [Example 9, 1-(3-aminophenyl)-3,5-dimethyl-1H-pyrazole-4-carboxylic acid ethyl ester], the EC50 in assay [1] (setting [2]) turned out to be 1.9 µM. For the same compound, the IC50 on human recombinant PDE4 (setting [3]) was 1.03 µM; at human recombinant PDE4 (setting [4]), 1 µM.

In the case of `CCOC(=O)c1c(C)nn(-c2ncccc2[N+](=O)[O-])c1C` [Example 10, 3,5-dimethyl-1-(3-nitropyridin-2-yl)-1H-pyrazole-4-carboxylic acid ethyl ester], the EC50 in assay [1] (setting [5]) came to 2 µM. Also, the IC50 on human recombinant PDE4 (setting [3]) and on human recombinant PDE4 (setting [4]) was 0.2 µM each time.

In the case of `CCOC(=O)c1c(C)nn(-c2ccc(N)cc2)c1C` [Example 11, 3,5-dimethyl-1-(4-aminophenyl)-1H-pyrazole-4-carboxylic acid ethyl ester], in assay [1] (setting [5]), the EC50 was 1 µM. Besides, the 50% inhibitory concentration (IC50) on human recombinant PDE4 (setting [3]) and on human recombinant PDE4 (setting [4]) was 0.3 µM each time.

On to `CCOC(=O)c1c(C)nn(-c2ncccc2N)c1C` [Example 12, 1-(3-aminopyridin-2-yl)-3,5-dimethyl-1H-pyrazole-4-carboxylic acid ethyl ester], for which the EC50 in assay [1] (setting [2]) came out at 2.6 µM. In addition, the concentration for half-maximal inhibition (IC50) at human recombinant PDE4 (setting [3]) and on human recombinant PDE4 (setting [4]) was 0.94 µM in each case.

Consider `CCOC(=O)c1c(C)nn(-c2ccc(NS(=O)(=O)c3ccc(OC)cc3)cc2)c1C` [Example 13, 1-[4-(4-methoxybenzenesulfonylamino)phenyl]-3,5-dimethyl-1H-pyrazole-4-carboxylic acid ethyl ester], for which the IC50 at human recombinant PDE4 (setting [6]) amounted to 1.88 µM.

Turning to `CCOC(=O)c1c(C)nn(-c2ccc(NC(=O)C(C)(C)C)cc2)c1C` [Example 14, 1-[4-(2,2-dimethylpropionylamino)phenyl]-3,5-dimethyl-1H-pyrazole-4-carboxylic acid ethyl ester], at human recombinant PDE4 (setting [3]), the IC50 is 6.39 µM.

Take `Cc1ccc(OC(=O)c2c(C)nn(-c3ccccc3)c2C)cc1` [Example 15, 3,5-dimethyl-1-phenyl-1H-pyrazole-4-carboxylic acid p-tolyl ester]: the half-maximal inhibitory concentration (IC50) on human recombinant PDE4 (setting [3]) is 36.5 µM.

For `Cc1nn(-c2ncccc2[N+](=O)[O-])c(C)c1C(=O)O` [Example 16, 3,5-dimethyl-1-(3-nitropyridin-2-yl)-1H-pyrazole-4-carboxylic acid], at human recombinant PDE4 (setting [3]), the concentration for half-maximal inhibition (IC50) was 47.4 µM.

On to `CCOC(=O)c1c(C)nn(-c2ccc([N+](=O)[O-])cn2)c1C` [Example 17, 3,5-dimethyl-1-(5-nitropyridin-2-yl)-1H-pyrazole-4-carboxylic acid ethyl ester], for which the IC50 at human recombinant PDE4 (setting [3]) was found to be 57.5 µM.

Take `Cc1nn(-c2ccc(N)cc2)c(C)c1C(=O)O` [Example 18, 1-(4-aminophenyl)-3,5-dimethyl-1H-pyrazole-4-carboxylic acid]: at human recombinant PDE4 (setting [3]), the half-maximal inhibitory concentration (IC50) was 175 µM.

For the compound `CCOC(=O)c1c(C)nn(C2CCCCC2)c1C` [Example 19, 1-cyclohexyl-3,5-dimethyl-1H-pyrazole-4-carboxylic acid ethyl ester], the EC50 in assay [1] (setting [5]) turned out to be 0.52 µM. Besides, the IC50 on human recombinant PDE4 (setting [3]) and at human recombinant PDE4 (setting [4]) was 0.053 µM each time.

Turning to `CCOC(=O)c1cn(-c2ccccn2)nc1C` [Example 26, 3-methyl-1-pyridin-2-yl-1H-pyrazole-4-carboxylic acid ethyl ester], the half-inhibitory concentration (IC50) at human recombinant PDE4 (setting [3]) turned out to be 3.59 µM.

Regarding `CCOC(=O)c1cnn(-c2ccc(N)cc2)c1C(F)(F)F` [Example 27, 1-(4-aminophenyl)-5-trifluoromethyl-1H-pyrazole-4-carboxylic acid ethyl ester], the 50% inhibitory concentration (IC50) on human recombinant PDE4 (setting [3]) was determined as 3.61 µM.

Consider `Cc1nn(-c2ccccc2)c(C)c1C=O` [Example 28, 3,5-Dimethyl-1-phenyl-1H-pyrazole-4-carboxaldehyde], for which the IC50 at human recombinant PDE4 (setting [3]) amounted to 18 µM.

Consider `COC(=O)c1cnn(-c2cc(C(F)(F)F)cc(C)n2)c1C(=O)C=CN(C)C` [Example 29, 5-(3-Dimethylaminoacryloyl)-1-(6-methyl-4-trifluoromethylpyridin-2-yl)-1H-pyrazole-4-carboxylic acid methyl ester], for which, at human recombinant PDE4 (setting [3]), the 50% inhibitory concentration (IC50) was 37 µM.

Take `CCOC(=O)c1cnn(-c2ccc([N+](=O)[O-])cc2)c1C(F)(F)F` [Example 30, 1-(4-Nitrophenyl)-5-trifluoromethyl-1H-pyrazole-4-carboxylic acid ethyl ester]: on human recombinant PDE4 (setting [3]), the concentration for half-maximal inhibition (IC50) came to 45.4 µM.

For the compound `CCOC(=O)c1cnn(-c2ncc(C(F)(F)F)cc2Cl)c1C` [Example 31, 1-(3-Chloro-5-trifluoromethylpyridin-2-yl)-5-methyl-1H-pyrazole-4-carboxylic acid ethyl ester], at human recombinant PDE4 (setting [3]), the IC50 was 63 µM.

Consider `C/C(=N\O)c1cnn(-c2cc(C(F)(F)F)cc(C)n2)c1C` [Example 32, 1-[5-Methyl-1-(6-methyl-4-trifluoromethyl-pyridin-2-yl)-1H-pyrazol-4-yl]-ethanone oxime], for which the IC50 on human recombinant PDE4 (setting [3]) was 67.4 µM.

On to `COC(=O)c1cnn(-c2cc(C(F)(F)F)cc(C)n2)c1C(C)=O` [Example 33, 5-Acetyl-1-(6-methyl-4-trifluoromethylpyridin-2-yl)-1H-pyrazole-4-carboxylic acid methyl ester], for which the concentration for half-maximal inhibition (IC50) on human recombinant PDE4 (setting [3]) was found to be 88.2 µM.

With `Cc1nn(-c2ccccc2)c(C)c1C(=O)Nc1ccncc1` [Example 34, 3,5-Dimethyl-1-phenyl-1H-pyrazole-4-carboxylic acid pyridin-4-ylamide], the 50% inhibitory concentration (IC50) at human recombinant PDE4 (setting [3]) amounted to 97.9 µM.

As to `CCOC(=O)c1cnn(-c2c(Cl)cc(Cl)cc2Cl)c1COC` [Example 35, 5-Methoxymethyl-1-(2,4,6-trichlorophenyl)-1H-pyrazole-4-carboxylic acid ethyl ester], the 50% inhibitory concentration (IC50) at human recombinant PDE4 (setting [3]) stood at 131 µM.

For the compound `Cc1nn(-c2ccccc2)c(C)c1C(=O)Nc1ccccc1` [Example 36, 3,5-Dimethyl-1-phenyl-1H-pyrazole-4-carboxylic acid phenylamide], the half-maximal inhibitory concentration (IC50) at human recombinant PDE4 (setting [3]) stood at 142 µM.

As to `COC(=O)c1cnn(-c2ccccn2)c1C(C)=O` [Example 37, 5-Acetyl-1-pyridin-2-yl-1H-pyrazole-4-carboxylic acid methyl ester], on human recombinant PDE4 (setting [3]), the 50% inhibitory concentration (IC50) was found to be 181 µM.

`CCOC(=O)c1c(C)nn(-c2ccc(N=Cc3ccccc3O)cc2)c1C` [Example 38]: the EC50 in assay [1] (setting [2]) was 1 µM. Besides, the IC50 was determined as 0.4 µM on human recombinant PDE4 (setting [6]) and 0.4 µM on human recombinant PDE4 (PDE4 IC50 (μM), table with PBL/TNFα).

These data come from patent publication US7087634B2, “Cyclic AMP-specific phosphodiesterase inhibitors” (ICOS Corporation, priority 1999, dated 2006).
